Experiments:
Lymphocyte = assay: Inhibition of T cell activation in human peripheral blood lymphocytes by mixed lymphocyte reaction; format: functional, cell-based
Angiopoietin-1 receptor = Angiopoietin-1 receptor (Homo sapiens, UniProt Q02763); assay: Inhibition of Tie2 by HTRF assay
[1] = biological target: Mitogen-activated protein kinase 14 (Homo sapiens, UniProt Q16539); assay: Inhibition of p38alpha by HTRF assay
[2] = biological target: T1, Tyrosine-protein kinase JAK3 (Homo sapiens, UniProt P52333); assay: Inhibition of Jak3 by HTRF assay
T1 sequence (P52333 whole entry): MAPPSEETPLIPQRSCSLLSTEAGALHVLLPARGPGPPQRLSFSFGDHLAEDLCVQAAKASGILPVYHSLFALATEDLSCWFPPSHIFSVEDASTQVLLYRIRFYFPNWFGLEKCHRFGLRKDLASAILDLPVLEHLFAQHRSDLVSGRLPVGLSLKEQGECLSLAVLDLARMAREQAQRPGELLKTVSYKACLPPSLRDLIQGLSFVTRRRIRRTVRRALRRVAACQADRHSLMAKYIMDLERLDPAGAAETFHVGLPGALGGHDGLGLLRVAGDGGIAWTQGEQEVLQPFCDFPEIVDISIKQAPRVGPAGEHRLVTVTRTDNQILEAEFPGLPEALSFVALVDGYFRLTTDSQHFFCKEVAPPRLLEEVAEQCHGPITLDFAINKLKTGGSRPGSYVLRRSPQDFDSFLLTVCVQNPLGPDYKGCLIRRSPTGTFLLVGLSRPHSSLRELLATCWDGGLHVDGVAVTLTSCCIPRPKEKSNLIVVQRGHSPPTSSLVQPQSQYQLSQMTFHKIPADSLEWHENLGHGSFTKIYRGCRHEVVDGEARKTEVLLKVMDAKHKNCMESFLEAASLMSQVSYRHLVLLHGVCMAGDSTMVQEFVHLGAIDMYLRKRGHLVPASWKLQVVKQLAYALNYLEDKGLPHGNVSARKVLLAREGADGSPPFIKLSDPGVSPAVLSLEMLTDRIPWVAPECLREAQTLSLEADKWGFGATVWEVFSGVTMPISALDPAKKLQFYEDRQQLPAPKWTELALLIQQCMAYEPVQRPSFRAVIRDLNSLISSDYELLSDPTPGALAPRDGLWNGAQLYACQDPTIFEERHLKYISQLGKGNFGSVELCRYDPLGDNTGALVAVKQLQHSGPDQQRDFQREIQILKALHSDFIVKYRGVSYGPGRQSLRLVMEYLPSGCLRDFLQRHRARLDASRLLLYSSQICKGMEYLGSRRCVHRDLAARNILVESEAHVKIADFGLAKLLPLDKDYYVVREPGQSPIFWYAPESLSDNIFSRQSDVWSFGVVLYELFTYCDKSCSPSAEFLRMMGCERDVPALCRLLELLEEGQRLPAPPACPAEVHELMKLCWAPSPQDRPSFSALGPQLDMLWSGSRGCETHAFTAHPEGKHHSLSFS

[3] = biological target: Vascular endothelial growth factor receptor 2 (Homo sapiens, UniProt P35968); assay: Inhibition of KDR by HTRF assay
[4] = biological target: Tyrosine-protein kinase Lck (Homo sapiens, UniProt P06239)
Description: Inhibition of Lck by HTRF assay

[5] = Protein binding in rat plasma; format: ADME, cell-free; details: read-out: PB (converted)
[6] = Half life in Sprague-Dawley rat at 0.5 mg/kg, iv; format: ADME, organism-based; design: dose 0.5 mg/kg, route intravenous; details: in vivo
[7] = Oral bioavailability in Sprague-Dawley rat at 2 mg/kg; format: ADME, organism-based; details: in vivo
[8] = Tmax in Sprague-Dawley rat at 2 mg/kg; format: ADME, organism-based; design: dose 2 mg/kg; details: in vivo
Blood [9] = assay: Inhibition of LPS-induced TNFalpha production in human whole blood by ELISA; format: functional, tissue-based
[10] = Protein binding in mouse plasma; format: ADME, cell-free; details: read-out: PB (converted)
[11] = AUC (0 to infinity) in Sprague-Dawley rat at 2 mg/kg, po; format: ADME, organism-based; design: time infinity, dose 2 mg/kg, route oral; details: plasma
[12] = Volume of distribution at steady state in Sprague-Dawley rat at 0.5 mg/kg, iv; format: ADME, organism-based; design: dose 0.5 mg/kg, route intravenous; details: in vivo, read-out: Vdss
[13] = Clearance in Sprague-Dawley rat at 0.5 mg/kg, iv; format: ADME, organism-based; design: dose 0.5 mg/kg, route intravenous; details: in vivo
Blood [14] = assay: Inhibition of anti-CD3-induced IL2 production in human whole blood by ELISA; format: functional, tissue-based
[15] = Cmax in Sprague-Dawley rat at 2 mg/kg, po; format: ADME, organism-based; design: dose 2 mg/kg, route oral; details: in vivo
Mus musculus = species: Mus musculus; assay: Inhibition of anti-CD3-induced IL2 production in BALB/c mouse; format: functional

Mitogen-activated protein kinase 14, sequence (Q16539 whole entry): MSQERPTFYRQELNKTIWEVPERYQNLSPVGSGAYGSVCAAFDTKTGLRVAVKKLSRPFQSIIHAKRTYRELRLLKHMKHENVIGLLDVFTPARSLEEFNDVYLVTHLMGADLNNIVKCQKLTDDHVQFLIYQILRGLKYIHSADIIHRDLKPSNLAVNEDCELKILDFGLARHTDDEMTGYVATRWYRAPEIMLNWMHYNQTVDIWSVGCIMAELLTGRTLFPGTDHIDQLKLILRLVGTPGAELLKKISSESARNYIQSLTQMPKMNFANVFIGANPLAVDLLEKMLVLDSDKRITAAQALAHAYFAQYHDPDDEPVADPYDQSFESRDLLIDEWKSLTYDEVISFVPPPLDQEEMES
Angiopoietin-1 receptor, sequence (Q02763 whole entry): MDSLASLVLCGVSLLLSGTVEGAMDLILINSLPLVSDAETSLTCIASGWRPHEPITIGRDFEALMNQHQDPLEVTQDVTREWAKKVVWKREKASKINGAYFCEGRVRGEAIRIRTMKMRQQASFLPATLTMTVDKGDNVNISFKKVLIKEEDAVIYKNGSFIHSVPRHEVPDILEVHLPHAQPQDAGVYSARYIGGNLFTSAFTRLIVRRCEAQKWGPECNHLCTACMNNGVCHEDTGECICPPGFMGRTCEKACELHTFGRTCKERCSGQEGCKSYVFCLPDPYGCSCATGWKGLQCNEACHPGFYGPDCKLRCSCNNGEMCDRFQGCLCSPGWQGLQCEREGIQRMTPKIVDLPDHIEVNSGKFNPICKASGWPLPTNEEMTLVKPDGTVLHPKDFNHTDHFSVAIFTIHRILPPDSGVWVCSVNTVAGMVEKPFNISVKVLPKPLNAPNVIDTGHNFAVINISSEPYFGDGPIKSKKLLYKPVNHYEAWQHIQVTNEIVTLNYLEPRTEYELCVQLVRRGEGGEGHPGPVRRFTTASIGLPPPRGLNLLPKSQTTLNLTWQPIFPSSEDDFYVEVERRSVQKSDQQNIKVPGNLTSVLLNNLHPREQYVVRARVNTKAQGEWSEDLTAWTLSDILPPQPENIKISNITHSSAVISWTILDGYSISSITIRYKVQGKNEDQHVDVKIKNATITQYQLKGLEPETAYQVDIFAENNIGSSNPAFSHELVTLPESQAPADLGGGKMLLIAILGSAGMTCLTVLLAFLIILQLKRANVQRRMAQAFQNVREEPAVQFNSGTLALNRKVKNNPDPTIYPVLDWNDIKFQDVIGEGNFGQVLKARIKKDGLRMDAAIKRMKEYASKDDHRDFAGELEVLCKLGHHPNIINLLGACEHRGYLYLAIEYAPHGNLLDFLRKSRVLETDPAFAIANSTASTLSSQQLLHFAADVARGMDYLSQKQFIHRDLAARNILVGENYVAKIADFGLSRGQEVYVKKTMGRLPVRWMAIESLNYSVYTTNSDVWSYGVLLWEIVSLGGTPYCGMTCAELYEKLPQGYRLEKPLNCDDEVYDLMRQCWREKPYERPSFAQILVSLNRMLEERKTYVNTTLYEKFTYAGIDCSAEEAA
Tyrosine-protein kinase Lck, sequence (P06239 whole entry): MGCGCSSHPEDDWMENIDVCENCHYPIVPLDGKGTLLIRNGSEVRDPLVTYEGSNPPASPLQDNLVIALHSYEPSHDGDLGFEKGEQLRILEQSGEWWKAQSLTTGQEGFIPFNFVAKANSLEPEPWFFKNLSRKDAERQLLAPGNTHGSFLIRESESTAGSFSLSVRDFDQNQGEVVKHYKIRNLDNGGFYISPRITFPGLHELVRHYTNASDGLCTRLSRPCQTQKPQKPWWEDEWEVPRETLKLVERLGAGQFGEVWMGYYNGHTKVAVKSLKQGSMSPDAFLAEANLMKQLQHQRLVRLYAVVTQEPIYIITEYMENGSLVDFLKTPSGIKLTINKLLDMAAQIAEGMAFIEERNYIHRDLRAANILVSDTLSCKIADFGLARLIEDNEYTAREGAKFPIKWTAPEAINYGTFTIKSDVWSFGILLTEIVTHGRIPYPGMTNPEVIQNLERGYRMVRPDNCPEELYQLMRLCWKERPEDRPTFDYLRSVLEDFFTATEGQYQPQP
Vascular endothelial growth factor receptor 2, sequence (P35968 whole entry): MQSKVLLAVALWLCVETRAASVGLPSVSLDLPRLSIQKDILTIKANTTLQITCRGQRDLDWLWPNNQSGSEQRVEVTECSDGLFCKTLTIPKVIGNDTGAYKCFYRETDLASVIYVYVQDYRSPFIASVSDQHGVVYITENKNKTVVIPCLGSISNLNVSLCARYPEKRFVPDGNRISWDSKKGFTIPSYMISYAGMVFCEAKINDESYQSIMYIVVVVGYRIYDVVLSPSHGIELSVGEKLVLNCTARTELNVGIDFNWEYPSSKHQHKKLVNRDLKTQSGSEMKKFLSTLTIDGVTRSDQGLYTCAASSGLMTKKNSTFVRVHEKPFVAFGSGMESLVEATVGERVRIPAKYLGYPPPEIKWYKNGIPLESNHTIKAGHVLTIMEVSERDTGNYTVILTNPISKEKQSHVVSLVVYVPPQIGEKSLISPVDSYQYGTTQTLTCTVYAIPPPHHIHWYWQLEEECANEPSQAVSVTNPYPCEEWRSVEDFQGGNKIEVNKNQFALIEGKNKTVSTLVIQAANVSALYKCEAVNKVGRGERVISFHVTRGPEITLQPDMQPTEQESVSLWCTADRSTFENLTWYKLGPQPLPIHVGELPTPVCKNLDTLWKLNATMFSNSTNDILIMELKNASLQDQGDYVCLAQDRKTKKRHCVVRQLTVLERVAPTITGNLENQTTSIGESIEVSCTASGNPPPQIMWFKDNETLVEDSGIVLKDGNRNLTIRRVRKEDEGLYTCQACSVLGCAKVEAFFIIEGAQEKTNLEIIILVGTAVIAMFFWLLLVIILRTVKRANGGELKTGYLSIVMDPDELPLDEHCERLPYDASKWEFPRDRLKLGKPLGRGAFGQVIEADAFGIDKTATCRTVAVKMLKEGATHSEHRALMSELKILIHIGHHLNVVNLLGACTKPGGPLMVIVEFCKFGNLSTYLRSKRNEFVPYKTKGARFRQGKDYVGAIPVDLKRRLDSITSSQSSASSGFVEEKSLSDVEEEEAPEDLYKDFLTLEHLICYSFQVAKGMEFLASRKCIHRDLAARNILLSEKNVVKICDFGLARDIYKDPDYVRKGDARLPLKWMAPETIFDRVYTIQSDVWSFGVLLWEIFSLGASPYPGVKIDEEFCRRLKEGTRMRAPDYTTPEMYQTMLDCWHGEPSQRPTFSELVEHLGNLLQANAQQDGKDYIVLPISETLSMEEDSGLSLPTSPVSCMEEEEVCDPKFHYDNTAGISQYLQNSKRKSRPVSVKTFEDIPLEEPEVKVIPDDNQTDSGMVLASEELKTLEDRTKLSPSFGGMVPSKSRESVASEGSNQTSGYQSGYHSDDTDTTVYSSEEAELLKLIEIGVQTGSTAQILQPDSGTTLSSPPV

Row | IC50 (Lymphocyte) [µM] | IC50 (Angiopoietin-1 receptor) [µM] | IC50 [1] [µM] | IC50 [2] [µM] | IC50 [3] [µM] | IC50 [4] [µM] | fraction unbound [5] | half-life [6] [h] | bioavailability [7] [%] | Tmax [8] [h] | IC50 (Blood [9]) [µM] | fraction unbound [10] | AUC(0-inf) [11] [ng·h/mL] | Vd [12] [L/kg] | clearance [13] [mL/min/kg] | IC50 (Blood [14]) [µM] | Cmax [15] [ng/mL] | SMILES | ED50 (Mus musculus) [mg/kg]
1 | 0.202 | > 25 | 0.006 | > 25 | > 8.3 |  |  |  |  |  |  |  |  |  |  |  |  | Cc1ccc(NC(=O)c2cccc(C(F)(F)F)c2)cc1C(=O)Nc1cnc(NCCN2CCOCC2)nc1 | 
2 |  | > 25 | 0.063 | > 25 | > 5 | 0.048 |  |  |  |  |  |  |  |  |  |  |  | CC(=O)Nc1ccc(C)c(C(=O)Nc2cnc(Nc3ccc(N4CCN(C)CC4)cc3)nc2)c1 | 
3 | 0.021 | 6.08 | 0.003 | > 25 | 0.017 | 0.0003 | 0.023 | 3.8 | 8 | 0.6 | 1.01 | 0.018 | 332 | 1.61 | 8.17 | 0.016 | 39 | Cc1ccc(NC(=O)c2cc(F)cc(C(F)(F)F)c2)cc1C(=O)Nc1cnc(Nc2ccc(N3CCN(C)CC3)cc2)nc1 | 
4 | 0.043 | 0.021 | 0.001 | 0.156 | 0.006 | 0.0004 |  |  |  |  |  |  |  |  |  |  |  | Cc1ccc(NC(=O)c2cccc(C(F)(F)F)c2)cc1-c1ccc2nc(N)ncc2c1 | 
5 | 0.928 | > 25 | 0.233 | > 25 | > 5 | 0.006 |  |  |  |  |  |  |  |  |  |  |  | CCc1ccc(NC(=O)c2ccc3c(c2)OC(F)(F)O3)cc1C(=O)Nc1cnc(Nc2ccc(N3CCN(C)CC3)cc2)nc1 | 
6 | 0.077 | > 8.3 | 0.004 | > 25 | 0.12 | 0.0014 | 0.017 | 2.5 | 8 | 0.33 |  | 0.012 | 528 | 0.79 | 4.83 | 0.043 | 191 | COc1cc(OC)cc(C(=O)Nc2ccc(C)c(C(=O)Nc3cnc(Nc4ccc(N5CCN(C)CC5)cc4)nc3)c2)c1 | 
7 | 0.107 | > 25 |  | > 25 | 0.125 |  |  |  |  |  | > 10 |  |  |  |  | 1.27 |  | Cc1ccc(NC(=O)c2cccc(C(F)(F)F)c2)cc1C(=O)Nc1cnc(N)nc1 | 
8 | 3.92 | > 25 | 0.179 | > 25 | 3.78 | 0.014 |  |  |  |  |  |  |  |  |  |  |  | Cc1ccc(NC(=O)c2cnoc2C)cc1C(=O)Nc1cnc(Nc2ccc(N3CCN(C)CC3)cc2)nc1 | 
9 |  |  |  |  |  |  |  |  |  |  |  |  |  |  |  |  |  | C/C=C/C[C@@H](C)[C@@H](O)[C@H]1C(=O)N[C@@H](CC)C(=O)N(C)CC(=O)N(C)[C@@H](CC(C)C)C(=O)N[C@@H](C(C)C)C(=O)N(C)[C@@H](CC(C)C)C(=O)N[C@@H](C)C(=O)N[C@H](C)C(=O)N(C)[C@@H](CC(C)C)C(=O)N(C)[C@@H](CC(C)C)C(=O)N(C)[C@@H](C(C)C)C(=O)N1C [CYCLOSPORINE] | 10
10 |  | > 25 | 0.005 | > 25 | > 25 | 1.31 |  |  |  |  |  |  |  |  |  |  |  | Cc1ccc(NC(=O)c2cccc(C(F)(F)F)c2)cc1C(=O)Nc1cnc(NC2CCN(C)CC2)nc1 | 
11 |  | > 25 | 0.199 | > 25 | > 8.3 |  |  |  |  |  |  |  |  |  |  |  |  | Cc1ccc(NC(=O)c2cccc(C(F)(F)F)c2)cc1C(=O)Nc1cncnc1 | 
12 | 0.009 |  |  |  |  |  |  |  |  |  |  |  |  |  |  |  |  | Cc1ccc(C(=O)Nc2cccc(C(F)(F)F)c2)cc1-c1ccc2nc(N)ncc2c1 | 
13 | 0.029 | > 5 | 0.006 | > 5 | 0.013 | 0.0018 |  |  |  |  |  |  |  |  |  |  |  | CN1CCN(c2ccc(Nc3ncc(NC(=O)c4cc(NC(=O)c5ccc6c(c5)OC(F)(F)O6)ccc4Cl)cn3)cc2)CC1 | 

Reference: ChEMBL document CHEMBL1144680, “Structure-guided design of aminopyrimidine amides as potent, selective inhibitors of lymphocyte specific kinase: synthesis, structure-activity relationships, and inhibition of in vivo T cell activation” (J Med Chem, 2008)
